Test results from US20250360109A1, “COMPOSITIONS AND METHODS FOR TREATING DEPRESSION IN FEMALES” (priority 2022, published 2025).

Key:
[1] = system: adult subjects with major depressive disorder (MDD); assay: Phase 2 placebo-controlled study in MDD, Clinical Global Impression-Severity (CGI-S) total score; assay type: in vivo, human; details: mITT
Experimental: (§1) A Phase 2, multicenter, double-blind, randomized, placebo-controlled study of the safety and efficacy of SP-624 in the treatment of adult subjects with major depressive disorder (MDD) as defined by the Diagnostic and Statistical Manual of Mental Disorders, Fifth Edition (DSM-5) was carried out. Following the successful completion of a Screening Phase, subjects were randomized to one of two treatment groups in a 1:1 ratio and received Compound 1 (SP-624) or placebo over a treatment period of four weeks (Treatment Group #1: SP-624 20 mg/day; Treatment Group #2: Placebo).
(§2) Prior to initiating the 4-week treatment period, subjects completed a Screening/Baseline period of up to 28 days, during which time all screening assessments were performed, and any current depression medications discontinued. All screening assessments were completed before discontinuing any current depression medications. Subjects returned for a Baseline Visit to complete efficacy and safety assessments. During the treatment period, subjects returned to the investigative site to complete efficacy and safety assessments at the end of Weeks 1, 2, 3, and 4. After the final dose of study drug, subjects completed a follow-up period of two weeks and returned at the end of Weeks 5 and 6. Subjects may be treated with anti-depressant medications according to physician recommendations after completion of the Week 5 Visit.
(§3) Each dose of Compound 1 was supplied as two capsules, each containing 10 mg of active pharmaceutical ingredient (API). Matching placebo capsules identical in shape and color to the active capsules were used.
(§4) Secondary efficacy endpoints included: • Change from Baseline to Weeks 1, 2, and 3 in MADRS total score, • Change from Baseline to Weeks 1, 2, 3, and 4 in Clinical Global Impression-Severity (CGI-S) total score, • Change from Baseline to Week 5 and change from Week 4 to Week 5 in MADRS total score and CGI-S total score, • Change from Baseline to Week 2 and Week 4 in the 17-item Hamilton Depression Rating Scale (HAM D-17) total score, • Change from Baseline to Week 2 and Week 4 in the Sheehan Disability Scale (SDS), • Change from Baseline to Week 2 and Week 4 in the Quick Inventory of Depressive Symptomology-Self Report (QIDS-SR), and • Change from Baseline to Week 2 and Week 4 in the Quality of Life Enjoyment and Satisfaction Questionnaire-Short Form (Q-LES-Q-SF).

[2] = system: adult subjects with major depressive disorder (MDD); assay: Phase 2 placebo-controlled study in MDD, 17-item Hamilton Depression Rating Scale (HAM D-17) total score; assay type: in vivo, human; details: mITT; for Change from Baseline, HAM-D-17 Total at Week 2, LSM Difference (95% CI) / Change from Baseline, HAM-D-17 Total at Week 4, LSM Difference (95% CI): 20 mg/day vs Placebo; for Change from Baseline, HAM-D-17 Total at Week 2, Mean (SD) / Change from Baseline, HAM-D-17 Total at Week 2, Median / Change from Baseline, HAM-D-17 Total at Week 4, Mean (SD) / Change from Baseline, HAM-D-17 Total at Week 4, Median / HAM-D-17 Total at Week 2, Mean (SD) / HAM-D-17 Total at Week 2, Median / HAM-D-17 Total at Week 4, Mean (SD) / HAM-D-17 Total at Week 4, Median: 20 mg/day
Experimental: as §1, §2, §3, §4

In the case of COC1=CC(=O)C[C@@H](C)[C@]12Oc1c(Cl)c(-c3nnc(C)o3)cc(OC)c1C2=O [SP-624, (2S,6′R)-7-Chloro-2′,4-dimethoxy-6′-methyl-6-(5-methyl-1,3,4-oxadiazol-2-yl)-3H-spiro[1-benzofuran-2,1′-cyclohex [2]ene]-3,4′-dione], the “CGI-S Total at Week 3, Median” value ([1]; Female, 20 mg/day) is reported as 4, the “CGI-S Total at Week 4, Mean (SD)” value ([1]; Female, 20 mg/day) is reported as 3.3 (1.20) and the “CGI-S Total at Week 4, Median” value ([1]; Female, 20 mg/day) is reported as 3. For the same compound, the “Change from Baseline, CGI-S Total at Week 1, Mean (SD)” value ([1]; Female, 20 mg/day) was −0.5 (0.80), the “Change from Baseline, CGI-S Total at Week 1, Median” value ([1]; Female, 20 mg/day) was 0 and the “Change from Baseline, CGI-S Total at Week 2, Mean (SD)” value ([1]; Female, 20 mg/day) was −0.8 (0.96). For the same compound, the “Change from Baseline, CGI-S Total at Week 2, Median” value ([1]; Female, 20 mg/day) was −1, the “Change from Baseline, CGI-S Total at Week 3, Mean (SD)” value ([1]; Female, 20 mg/day) was −1.1 (1.13) and the “Change from Baseline, CGI-S Total at Week 3, Median” value ([1]; Female, 20 mg/day) was −1. For the same compound, the “Change from Baseline, CGI-S Total at Week 4, Mean (SD)” value ([1]; Female, 20 mg/day) was −1.2 (1.14), the “Change from Baseline, CGI-S Total at Week 4, Median” value ([1]; Female, 20 mg/day) was −1 and the “Change from Baseline, CGI-S Total at Week 1, LSM Difference (95% CI)” value ([1]; Male, 20 mg/day vs Placebo) was 0.0 (−0.5, 0.4). For the same compound, the “Change from Baseline, CGI-S Total at Week 2, LSM Difference (95% CI)” value ([1]; Male, 20 mg/day vs Placebo) was −0.1 (−0.5, 0.3), the “Change from Baseline, CGI-S Total at Week 3, LSM Difference (95% CI)” value ([1]; Male, 20 mg/day vs Placebo) was 0.0 (−0.4, 0.4) and the “Change from Baseline, CGI-S Total at Week 4, LSM Difference (95% CI)” value ([1]; Male, 20 mg/day vs Placebo) was 0.2 (−0.3, 0.6). The “CGI-S Total at Week 1, Mean (SD)” value ([1]; Male, 20 mg/day) was 3.9 (0.84), the “CGI-S Total at Week 1, Median” value ([1]; Male, 20 mg/day) was 4 and the “CGI-S Total at Week 2, Mean (SD)” value ([1]; Male, 20 mg/day) was 3.5 (1.18). The “CGI-S Total at Week 2, Median” value ([1]; Male, 20 mg/day) was 4, the “CGI-S Total at Week 3, Mean (SD)” value ([1]; Male, 20 mg/day) was 3.4 (1.15) and the “CGI-S Total at Week 3, Median” value ([1]; Male, 20 mg/day) was 4. For the same compound, the “CGI-S Total at Week 4, Mean (SD)” value ([1]; Male, 20 mg/day) was 3.4 (1.27), the “CGI-S Total at Week 4, Median” value ([1]; Male, 20 mg/day) was 4 and the “Change from Baseline, CGI-S Total at Week 1, Mean (SD)” value ([1]; Male, 20 mg/day) was −0.5 (0.85). The “Change from Baseline, CGI-S Total at Week 1, Median” value ([1]; Male, 20 mg/day) was 0, the “Change from Baseline, CGI-S Total at Week 2, Mean (SD)” value ([1]; Male, 20 mg/day) was −0.9 (1.16) and the “Change from Baseline, CGI-S Total at Week 2, Median” value ([1]; Male, 20 mg/day) was −1. For the same compound, the “Change from Baseline, CGI-S Total at Week 3, Mean (SD)” value ([1]; Male, 20 mg/day) was −1.0 (1.16), the “Change from Baseline, CGI-S Total at Week 3, Median” value ([1]; Male, 20 mg/day) was −1 and the “Change from Baseline, CGI-S Total at Week 4, Mean (SD)” value ([1]; Male, 20 mg/day) was −1.0 (1.27). For the same compound, the “Change from Baseline, CGI-S Total at Week 4, Median” value ([1]; Male, 20 mg/day) was −1, the “Change from Baseline, HAM-D-17 Total at Week 2, LSM Difference (95% CI)” value ([2]; Female) was −0.9 (−2.6, 0.8) and the “Change from Baseline, HAM-D-17 Total at Week 4, LSM Difference (95% CI)” value ([2]; Female) was −2.3 (−4.2, −0.4). The “Change from Baseline, HAM-D-17 Total at Week 2, Mean (SD)” value ([2]; Female) was −6.4 (5.99), the “Change from Baseline, HAM-D-17 Total at Week 2, Median” value ([2]; Female) was −5 and the “Change from Baseline, HAM-D-17 Total at Week 4, Mean (SD)” value ([2]; Female) was −8.8 (6.82). For the same compound, the “Change from Baseline, HAM-D-17 Total at Week 4, Median” value ([2]; Female) was −8, the “HAM-D-17 Total at Week 2, Mean (SD)” value ([2]; Female) was 16.6 (6.25) and the “HAM-D-17 Total at Week 2, Median” value ([2]; Female) was 17. The “HAM-D-17 Total at Week 4, Mean (SD)” value ([2]; Female) was 14.6 (7.03), the “HAM-D-17 Total at Week 4, Median” value ([2]; Female) was 15 and the “Change from Baseline, HAM-D-17 Total at Week 2, LSM Difference (95% CI)” value ([2]; Male) was 0.1 (−2.6, 2.8). For the same compound, the “Change from Baseline, HAM-D-17 Total at Week 4, LSM Difference (95% CI)” value ([2]; Male) was 1.4 (−1.4, 4.3), the “Change from Baseline, HAM-D-17 Total at Week 2, Mean (SD)” value ([2]; Male) was −5.7 (5.90) and the “Change from Baseline, HAM-D-17 Total at Week 2, Median” value ([2]; Male) was −5. For the same compound, the “Change from Baseline, HAM-D-17 Total at Week 4, Mean (SD)” value ([2]; Male) was −7.8 (6.57), the “Change from Baseline, HAM-D-17 Total at Week 4, Median” value ([2]; Male) was −7 and the “HAM-D-17 Total at Week 2, Mean (SD)” value ([2]; Male) was 16.2 (6.58). For the same compound, the “HAM-D-17 Total at Week 2, Median” value ([2]; Male) was 17, the “HAM-D-17 Total at Week 4, Mean (SD)” value ([2]; Male) was 14.3 (6.96) and the “HAM-D-17 Total at Week 4, Median” value ([2]; Male) was 15.
